Results reported in patent publication US8048883B2, “Polymorphic form of imatinib mesylate and a process for its preparation” (Natco Pharma Limited, priority 2004, dated 2011).
“Also recorded” adds a separate entry of the source. Like-named read-outs stand apart in the source and are kept apart here.

What was measured:
Format in all cases: physicochemical
[1] = Comparative dissolution of Imatinib mesylate capsules 100 mg (α2 and β-forms)
[2] = Heat stability of α2-crystal form, examined by XRPD; conditions: for Polymorph form detected after heating: XRPD
Text: Pure α2-crystal polymorph 1 gm prepared by the process described in Example 1 was taken in a boiling test tube and heated gradually in oil bath the substance was examined by XRPD. The results are tabulated below

[3] = Stability of α2 form under accelerated stress conditions in bulk and formulated capsule, XRPD
Hygroscopicity = assay: Hygroscopicity
[4] = Flow properties / suitability for solid dosage forms
[5] = Stability of the polymorphic form (metastable or stable); conditions: room temperature and higher temperatures up to 120° C.
[6] = 0 Month at 40 ± 2° C./75 ± 5% RH
[7] = 1 Month at 40 ± 2° C./75 ± 5% RH
[8] = 2 Months at 40 ± 2° C./75 ± 5% RH
[9] = 3 Months at 40 ± 2° C./75 ± 5% RH
[10] = 6 Months at 40 ± 2° C./75 ± 5% RH

Dissolution of the capsule formulation compared with the β-form formulation [1]: better dissolution characteristics | Dissolution in capsule formulation ([1]; during 30 min): Dissolution of more than 95% | Dissolution of the capsule formulation compared with the β-form formulation ([1]; listed as α2-form): comparable and even better | Polymorph form detected after heating ([2]; 110° C., 2 hours): α2 form | Polymorph form detected after heating ([2]; 110° C., 4 hours): α2 form | Polymorph form detected after heating ([2]; 120° C., 2 hours): α2 form | Polymorph form detected after heating ([2]; 120° C., 4 hours): α2 form | Polymorph form detected after heating ([2]; 120° C., 6 hours): α2 form | Polymorph content of bulk imatinib mesylate, polymorph form detected [3, 6]: α2 form | Polymorph content of imatinib mesylate in formulated capsule, polymorph form detected [3, 6]: α2 form | Polymorph content of bulk imatinib mesylate, polymorph form detected [3, 7]: α2 form | Polymorph content of imatinib mesylate in formulated capsule, polymorph form detected [3, 7]: α2 form | Polymorph content of bulk imatinib mesylate, polymorph form detected [3, 8]: α2 form | Polymorph content of imatinib mesylate in formulated capsule, polymorph form detected [3, 8]: α2 form | Polymorph content of bulk imatinib mesylate, polymorph form detected [3, 9]: α2 form | Polymorph content of imatinib mesylate in formulated capsule, polymorph form detected [3, 9]: α2 form | Polymorph content of bulk imatinib mesylate, polymorph form detected [3, 10]: α2 form | Polymorph content of imatinib mesylate in formulated capsule, polymorph form detected [3, 10]: α2 form | Conversion to β-polymorphic form in capsule ([3]; about 40° C. and about 75% relative humidity for 6 months): does not show any significant conversion | Conversion over time to form β ([3]; bulk form or dosage form, about 40° and about 75% relative humidity, at least about 6 months): does not substantially convert | Stability at normal and accelerated stress conditions ([3]; in bulk and formulated capsule form): stable | Hygroscopicity (Hygroscopicity): Non-hygroscopic | Flow properties of the formulations, α2 form compared with β-form ([4]; same excipient composition): comparable | Flow properties ([4]; suitability for pharmaceutical solid dosage forms): Found to be well suited for | Stability ([5]; listed as α2): stable | Stability ([5]; listed as α2-form): stable
SMILES: Cc1ccc(NC(=O)c2ccc(CN3CCN(C)CC3)cc2)cc1Nc1nccc(-c2cccnc2)n1 [α2 form, N-{5-[4-(4-methylpiperazino-methyl)-benzoylamido]-2-methylphenyl}-4-(3-pyridyl) 2-pyrimidine-amine]
Heat stability ([2]; 120° C. for 6 hours): non-metastable and stable; also recorded: fairly stable to heat
